Laboratory results reported in paper PMC11724075, “Small-molecule-induced ERBB4 activation to treat heart failure” (Nature Communications, 2025).
Values joined by “and” are separate entries in the source; they are usually repeats but may differ in a detail not shown here. Equal entries are not always repeated.

Tests used:
iAMs = assay: H2O2-induced cell death assay in iAMs (Toxilight), also with LY294002
Protocol: Subsequently, H2O2 (100 µM; Merck, H1009) was added and the cells were incubated for 4 h at 37 °C. All wells contained DMSO at a final concentration of 0.9%. […] After incubation at RT for 5 min, luminescence was measured using the Luminoskan Ascent.

Erbb4-null mice = assay: Survival of Erbb4-null mice under AngII treatment; type: in vivo, mouse; parameters: key to Survival probability in AngII-treated Erbb4-null mice: 0: Survived until end of experiment; 1: Died before the end of the experiment
From the text: Floxed Erbb4 mice (Erbb4^f/f; C57BL/6N; 129-Erbb4tm1Fej/Mmucd, MMRRC, #010439-UCD) were crossed with CAGGCre-ER^TM mice (Jackson Laboratory, 004682) containing the Tg(CAG-cre/Esr1*)5Amc transgene that expresses Cre recombinase under the control of a chicken beta actin promoter/enhancer coupled to the human cytomegalovirus immediate-early gene enhancer, resulting in expression of tamoxifen-inducible Cre-ERT in most cell types. To induce Cre recombinase-mediated deletion of Erbb4, eleven-week-old female and male iCAGGCre-ER^TM/Erbb4^f/f mice were intraperitoneally injected with tamoxifen (Merck, T5648; 10 mg/kg; in corn oil) daily for 5 consecutive days.
Statistical analysis was performed using GraphPad Prism version 10. Data are presented as the mean value of biological replicates (unless stated otherwise) ± SD. Data was checked for normality using the Shapiro–Wilk normality test. […]
Supplementary Figure 6. […] (a) Representative images of Masson’s trichrome staining of AngII-induced myocardial fibrosis following treatment with NA-1 and corresponding graphs showing the quantitation for total and perivascular fibrosis in male mice (n=5 male mice in Ctrl and AngII/Veh group, n=4 male mice in AngII/NA-1 group). […]

HCFs = assay: In vitro collagen expression: COL3A1 mRNA in HCFs stimulated with TGF-β1; type: cell-based, human
Protocol: HCFs were seeded at a density of 1.5 ×10^5 cells/well in doxycycline-free medium in 12-well plates (Greiner Bio-One, 665180) and incubated overnight. […] Compounds were pre-incubated for 10 min before addition of TGF-β1.
RNA was extracted using Nucleospin RNA XS (Macherey-Nagel, 740902.50) according to the manufacturer’s instructions. For cDNA synthesis, total RNA was added to a mixture containing buffer with random hexamers and reverse transcriptase enzyme (TaqMan reverse transcription reagents, Applied biosystems, N8080234) after which samples were incubated for 10 min at 25 °C, 30 min at 48 °C, and 5 min at 95 °C. RT-qPCR was performed on QuantStudio 3 Real-time PCR system (Applied Biosystems) using Taqman Universal PCR Master Mix (Applied Biosystems, 4304437) and Taqman primers according to the manufacturer’s instructions. Settings were as follows: […] followed by 10 min at 95 °C, 40 cycles (45 cycles for ERBB4) of denaturation at 95 °C for 15 s, and 1 min at 60 °C. All reactions were run in duplicate, and all data were normalized against housekeeping genes glyceraldehyde-3-phosphate dehydrogenase (GAPDH), beta-actin (ACTB), or phosphoglycerate kinase 1 (PGK1). Expression levels were calculated using the comparative cycle method and expressed as fold change (FC) to appropriate controls. The following TaqMan primers were used (Thermo Fisher Scientific): GAPDH (Hs02758991_g1, Mm99999915_g1 and Rn01775763_g1), PGK1 (Hs99999906_m1), ID2 (Hs04187239_m1), BMPR1B (Hs01010965_m1), CACNA2D4 (Hs00297782_m1), DUSP2 (Hs00358879_m1), NR4A1 (Hs00374226_m1), SGK1 (Hs00178612_m1), COL1A1 (Mm00801666_g1), COL3A1 (Hs00943809_m1 and Mm00802305_g1), ERBB4 (Hs00955525_m1 and Rn00572447_m1), ACTB (Mm02619580_g1) and ANP (Mm01255747_g1).

## OO [Compound H2O2, hydrogen peroxide, reference compound]
iAMs; 100 µM H2O2
  total cell death of iAMs: 62%
iAMs; H2O2 vs Vehicle, single replicates
  total cell death of iAMs, validation H2O2: 48.19 and 54.13 and 68.52 and 60.96 and 64.53 and 71.34 and 65.79 and 69.72 and 69.16 and 66.75 and 64.62 and 50.66 and 53.52 and 64.15

## O=c1cc(N2CCOCC2)oc2c(-c3ccccc3)cccc12 [LY294002, reference compound]
iAMs; H2O2/Veh + LY294002 (20 µM), single replicates
  total cell death of iAMs: 32.812 and 23.1247 and 24.542 and 32.4283
iAMs; Veh + LY294002 (20 µM), no H2O2, single replicates
  total cell death of iAMs: 4.366 and 3.706 and 3.828 and 4.745
iAMs; iAMs treated with H2O2
  effect of LY294002 pretreatment on pro-survival effect of EF-1 (in words): blocked the pro-survival effect of EF-1

## angiotensin II (DRVYIHPF; Angiotensin-2; UniProt P01019 25-32, looked up) [AngII, inducer of hypertrophy in iAMs and of myocardial fibrosis in mice]
Erbb4-null mice; 1000 ng/kg AngII, Erbb4-null mice, individual animals
  Survival probability in AngII-treated Erbb4-null mice: 1 and 0
Erbb4-null mice; AngII dose of 1000 ng/kg/day
  mortality in Erbb4-null mice: 80%

## transforming growth factor β1 [TGF-β1, reference compound]
HCFs; TGF-β1 10 ng/mL
  increase of COL3A1 mRNA levels in HCFs: 36%
HCFs; TGFβ vs Vehicle, single replicates
  COL3A1 mRNA expression (FC), HCF validation TGFβ: 1.323 and 1.4 and 1.364
